The results in this text go back to US20250213561A1, “SELECTIVE HYPOTHALAMUS PERMEABLE HDAC6 INHIBITORS FOR TREATMENT OF LEPTIN-RESISTANT OBESITY” (The Children’s Medical Center Corporation, priority 2022, published 2025).

Structures are written as SMILES. Entries after “also recorded” stand apart in the source; their conditions may differ.

Holding throughout (assay type): in vivo
For experiment [1], the system named is HDAC6 in AgRP neurons. The experiment can be described thus: DIO mice with HDAC6 depleted in AgRP neurons (HDAC6^Agrp-Δ). As to the method:
Design, validation, and stereotaxic injection of AAV viral vector carrying the guide RNAs targeting the mouse HDAC6 genomic locus. Three designed sgRNAs were concatenated and constructed into an AAV vector carrying a cre-enabled mCherry fluorescent marker.
(§1) Following the bilateral injection of AAV-sgHDAC6 into the arcuate nucleus of Agrp-ires-cre::LSL-Cas9-GFP (Agrp-Cre^+/−::Cas9^+/−) or control LSL-Cas9-GFP (Cas9^+/−) mice, immunostaining to detect the expression of mCherry and GFP was performed. AAV-sg-HDAC6 injected Agrp-Cre^+/−::Cas9^+/− (HDAC6^Agrp-Δ) and Cas9^+/−(HDAC6^WT) DIO mice (n=7 for each group) were fasted for 24 hours, and injected with ACY775 (10 mg/kg. i.p). Hourly total dark cycle food intake (g) (n=7 for each group) of these mice after ACY775 injection was measured. Body weight of AAV-sg-HDAC6 injected HDAC6^Agrp-Δ (n=11) and HDAC6^WT (n=6) mice were measured during 3 weeks of ACY775 (10 mg/kg/day, i.p.) treatment. Daily average food intake of HDAC6^Agrp-Δ (n=11) and HDAC6^WT (n=6) mice was measured during 3 weeks of ACY775 (10 mg/kg/day, i.p.) treatment. 24-hour food intake average of HDAC6^Agrp-Δ and HDAC6^WT mice during the 3 weeks of ACY775 treatment was assessed. Serum leptin level (ng/ml) of HDAC6^Agrp-Δ and HDAC6^WT mice after 2 weeks of ACY775 treatment (n=13 for HDAC6^WT and n=18 for HDAC6^Agrp-Δ) was measured. Lean mass (g); fat mass; and fat percentage (%) of HDAC6^Agrp-Δ and HDAC6^WT DIO mice after 3 weeks of ACY775 treatment was measured by DEXA scan. The HDAC6 inhibitor responsive neurons in the dorsomedial hypothalamus (DMH) were assessed. Immunostaining and quantification of c-Fos expression was performed in the DMH of DIO mice following one-time ACY775 treatment (10 mg/kg, i.p.).

In experiment [2] the test system is HDAC6 in ACY775-responsive DMH neurons. Nature of the experiment: TRAP2-HDAC6^DMH-Δ DIO mice. The note with it: TRAP2-HDAC6^DMH-Δ and TRAP2-HDAC6^WT DIO mice. As to the method:
Coordinates used for aav-sg-HDAC6 injection into the DMH of c-Fos-iCreER::LSL-Cas9-GFP (TRAP2-Cas9) mouse., mCherry immunostaining in the aav-sg-HDAC6 injected TRAP2-cas9 obese mice, which were treated three weeks earlier with one dose of ACY775 (10 mg/kg, i.p.) (TRAP2-HDAC6^DMH-Δ) or vehicle (TRAP2-HDAC6^WT), followed by 4-Hydroxytamoxifen (4-OHT) injection, were assessed. TRAP2-HDAC6^WT and TRAP2-HDAC6^DMH-Δ mice were fasted 24-h and treated with ACY775 (10 mg/kg, i.p.). Hourly and total dark cycle food intake (g) (n=4 for each group) was determined for these mice after ACY775 injection. Daily body weight of TRAP2-HDAC6^DMH-Δ(n=10) or TRAP2-HDAC6^WT(n=11) DIO mice was measured during 2 weeks of ACY775 (10 mg/kg/day, i.p) treatment. Daily average food intake of TRAP2-HDAC6^DMH-Δ(n=10) or TRAP2-HDAC6^WT(n=11) DIO mice was measured during 2 weeks of ACY775 treatment.
To investigate whether activity of other neuronal populations are altered after HDAC6 inhibitor treatment, c-fos staining was performed in the whole brain of DIO mice, which were acutely treated with ACY775. […] Some of the DMH neurons express high levels of LepRb and involved in regulation of appetite […]. Whether HDAC6 in these ACY775-responsive DMH neurons is required or involved in any way in mediating the appetite suppressing and body weight lowering effects of ACY775 was then tested. […]

Experiment [3] relates to DMH neurons. Nature of the experiment: c-Fos immunostaining in DMH of DIO mice. The conditions noted are these: fasting, acute 10 mg/kg i.p. As to the method: as §1, with “Immunostaining and quantification of c-Fos expression was performed in the DMH of DIO mice following one-time ACY775 treatment (10 mg/kg, i.p.).” left out
The test system of experiment [4] is ACY775-responsive DMH neurons. Nature of the experiment: Caspase3 ablation of ACY775-responsive DMH neurons in TRAP2 DIO mice. As to the method:
Whether the activity of ACY775-responsive DMH neurons could be involved in the food intake and bodyweight reducing activity of HDAC6 inhibitors was investigated as a possible second order of neurons to AgRP^ARC neurons. These neurons were ablated to investigate the necessity of these neurons in mediating the ACY775's anti-obesity effects. AAV-flex-taCasp3-TEVp was injected into the DMH of TRAP2 DIO mice, and then the mice were injected with a single dose of ACY775 and 4-OHT to ablate these neurons through caspase3 protein activation. To make sure that this experimental system worked, the existence of ACY775-responsive DMH neurons was verified by c-fos staining after injection of a second dose of ACY775. This experimental method predicts that caspase 3, when activated by administration of the first dose of ACY775 in conjugation with 4-OHT injection, will lead to ablation of ACY775-responsive DMH neurons, and diminish the c-fos signals that would otherwise be created by the second dose of ACY775.

Consider `O=C(NO)c1cnc(NC2(c3cccc(F)c3)CCCCC2)nc1` [ACY775, 2-[[1-(3-fluorophenyl)cyclohexyl]amino]-N-hydroxy-5-pyrimidinecarboxamide], for which the “suppression of food intake after a single dose” value in experiment [1] (HDAC6^Agrp-Δ DIO mice, 10 mg/kg i.p.) is “almost complete resistance to ACY755-induced suppression of food intake”. The “anti-obesity effects on chronic treatment” value in experiment [1] (HDAC6^Agrp-Δ versus HDAC6^WT DIO mice) was “Significantly attenuated effects”. In experiment [2], the “body weight and food intake, two weeks” value was “lost weight and food intake was reduced equally in both groups”; the “food intake after a dose in 24 h fasted mice” value is “consumed similar but small amount of food”. Further, the “c-fos positive cell number in the DMH” value in experiment [3] is “major increase in c-fos positive cell number”. For the same molecule, in experiment [4] (10 mg/kg/day i.p.), the “body weight and food consumption, chronic” value is “neither reduced the body weight nor the food consumption in caspase3^on-DMH mice; also recorded: did reduce the food intake and bodyweight in caspase3^off-DMH mice”. Besides, the blood glucose levels entry in experiment [4] (caspase3^on-DMH versus caspase3^off-DMH) is listed as “significantly higher in caspase3^on-DMH mice”. Besides, in experiment [4] (caspase3^on-DMH versus caspase3^off-DMH, 10 mg/kg i.p.), the “food intake in fasted mice” value is listed as “significantly higher than caspase3^off-DMH mice”.
